The values that follow are results of earlier work, collected in patent publication US6461590B2, “Stabilized gas-supersaturated suspensions and methods for their delivery” (Wayne State University, priority 1996, dated 2002).

`OCC(O)CO` [Glycerin]: the oxygen solubility is on record as 0.008 cc O2/g/atm.
